Like-named read-outs stand apart in the source and are kept apart here.
What was measured:
[1] = system: EGFR-overexpressing highly activated human epithelioid cancer cell line A431 cells; assay: Cytostatic activity against EGFR-expressing cell line (A431), CellTiter-Glo; format: cell-based; conditions: 3-day culture, read-out: A431 cell growth inhibitory activity IC50 value
Text: (§1) HER2-overexpressing human stomach cancer cell line NCI-N87 cells were suspended in RPMI1640 medium (manufactured by Life Technologies Corp.) containing 10% fetal bovine serum. Meanwhile, EGFR-overexpressing highly activated human epithelioid cancer cell line A431 cells were suspended in DMEM, high glucose medium (manufactured by Life Technologies Corp.) containing 10% fetal bovine serum. Subsequently, each cell suspension was inoculated to each well of a 384-well flat-bottom microplate and cultured at 37° C. for 1 day in an incubator containing 5% carbon dioxide. The synthesis example compound was dissolved in DMSO, and the test compound was diluted into a concentration of 500 times the final concentration using DMSO. The solution of the test compound in DMSO was diluted with the medium used in the suspension of each cell line, and this solution was added at a final concentration of DMSO of 0.2% to each well of the cell culture plate, followed by further culture at 37° C. for 3 days in an incubator containing 5% carbon dioxide.
Rate of growth inhibition (%)=(C−T)/(C)×100 T: Luminescence intensity of a well supplemented with the test compound C: Luminescence intensity of a well not supplemented with the test compound

[2] = biological target: purified recombinant human HER2 protein (Homo sapiens (Human), UniProt P04626); assay: Measurement of inhibitory effect on HER2-phosphorylating activity (in vitro); format: biochemical; conditions: ATP 6 μM, 25° C., 40 minutes
Text: The purified recombinant human HER2 protein used in the test was purchased from Carna Biosciences, Inc.
For the inhibitory activity measurement of each compound, the synthesis example compound was first serially diluted with dimethyl sulfoxide (DMSO).

[3] = system: HER2-overexpressing human stomach cancer cell line NCI-N87 cells; assay: Cytostatic activity against HER2-expressing cell line (NCI-N87), CellTiter-Glo; format: cell-based; conditions: 3-day culture, read-out: NCI-N87 cell growth inhibitory activity IC50 value
Text: as §1

| Compound | IC50 [1] [nM] | IC50 [2] [nM] | other results |
| --- | --- | --- | --- |
| C=CC(=O)N1CCC[C@@H](n2nc(C(=O)Nc3ccc(CC(=O)N(C)C)c(Cl)c3)c3c(N)ncnc32)C1 [compound 8] | 955 | 9.2 | IC50 [3]: 8 nM |
| C=CC(=O)N1CCC[C@@H](n2nc(C(=O)Nc3cc(Cl)c(CC(=O)N(C)C)cc3OC)c3c(N)ncnc32)C1 [compound 9] | 2450 | 10 | IC50 [3]: 13 nM |
| C=CC(=O)N1CCC[C@@H](n2nc(C(=O)Nc3ccc(CC(=O)N(C)C)c(F)c3C)c3c(N)ncnc32)C1 [compound 12] | 340 | 7.5 | IC50 [3]: 3 nM |
| C=CC(=O)N1CCC[C@@H](n2nc(C(=O)Nc3cc(F)c(CC(=O)N(C)C)cc3Cl)c3c(N)ncnc32)C1 [compound 18] | 1060 | 4.4 | IC50 [3]: 12 nM |
| C=CC(=O)N1CCC[C@@H](n2nc(C(=O)Nc3cc(Cl)c(CC(=O)N(C)C)cc3Cl)c3c(N)ncnc32)C1 [compound 20] | – | 13 | – |
| C=CC(=O)N1CCCC(n2nc(Nc3ccc(C(=O)N(C)C)cc3)c3c(N)ncnc32)C1 (stereo not drawn) [compound 21] | – | 26 | – |
| C=CC(=O)N1CCC[C@@H](n2nc(C(=O)Nc3ccc(CC(=O)N(C)C)cc3C3CC3)c3c(N)ncnc32)C1 [compound 22] | – | 48 | – |
| C=CC(=O)N1CCC[C@@H](n2nc(C(=O)Nc3ccc(CC(=O)N(C)C)cc3C#N)c3c(N)ncnc32)C1 [compound 23] | – | 20 | – |
| C=CC(=O)N1CCC[C@@H](n2nc(C(=O)Nc3cc(C#N)c(CC(=O)N(C)C)cc3C)c3c(N)ncnc32)C1 [compound 24] | – | 38 | – |
| C=CC(=O)N1CCC[C@@H](n2nc(C(=O)Nc3ccc(CC(=O)N(C)C)cc3)c3c(N)ncnc32)C1 [compound 28] | – | 46 | – |
| C=CC(=O)N1CCC[C@@H](n2nc(C(=O)Nc3ccc(OC(=O)N(C)C)c4ccccc34)c3c(N)ncnc32)C1 [compound 33] | 263 | – | – |
| C=CC(=O)N1CCC[C@@H](n2nc(C(=O)Nc3ccc(OC(=O)N(C)C)c(F)c3)c3c(N)ncnc32)C1 [compound 34] | 2210 | – | IC50 [3]: 32 nM |
| C=CC(=O)N1CCC[C@@H](n2nc(C(=O)Nc3ccc(OC(=O)N(C)C)c(F)c3F)c3c(N)ncnc32)C1 [compound 35] | 2610 | 16 | IC50 [3]: 8 nM |
| C=CC(=O)N1CCC[C@@H](n2nc(C(=O)Nc3ccc(CC(=O)N(C)C)c(OC)c3)c3c(N)ncnc32)C1 [compound 40] | – | 23 | – |
| C=CC(=O)N1CCC[C@@H](n2nc(C(=O)Nc3cccc4c(CC(=O)N(C)C)ccnc34)c3c(N)ncnc32)C1 [compound 41] | – | 18 | – |
| C=CC(=O)N1CCC[C@@H](n2nc(C(=O)Nc3ccc(CC(=O)N(C)C)c(F)c3)c3c(N)ncnc32)C1 [compound 42] | – | 18 | – |
| C=CC(=O)N1CCC[C@@H](n2nc(C(=O)Nc3ccc(CC(=O)N(C)C)cc3N(C)C)c3c(N)ncnc32)C1 [compound 47] | – | 52 | – |
| C=CC(=O)N1CCC[C@@H](n2nc(C(=O)Nc3ccc(CC(=O)N(C)C)cc3C=C)c3c(N)ncnc32)C1 [compound 48] | 314 | 8.5 | IC50 [3]: 4 nM |
| C=CC(=O)N1CCC[C@@H](n2nc(C(=O)Nc3ccc(CC(=O)N(C)C)cc3CC)c3c(N)ncnc32)C1 [compound 49] | – | 20 | – |
| C=CC(=O)N1CCC[C@@H](n2nc(C(=O)Nc3ccc(CC(=O)N(C)C)c(F)c3Cl)c3c(N)ncnc32)C1 [compound 50] | 277 | 2.9 | IC50 [3]: 4 nM |

| Compound | IC50 [1] [nM] | IC50 [2] [nM] | other results |
| --- | --- | --- | --- |
| C=CC(=O)N1CCC[C@@H](n2nc(C(=O)Nc3ccc(CC(=O)N(C)C)cc3-c3ccco3)c3c(N)ncnc32)C1 [compound 51] | – | 17 | – |
| C=CC(=O)N1CCC[C@@H](n2nc(C(=O)Nc3ccc(CC(=O)N(C)C)cc3-c3ccoc3)c3c(N)ncnc32)C1 [compound 52] | – | 13 | – |
| C=CC(=O)N1CC[C@@H](n2nc(C(=O)Nc3ccc(CC(=O)N(C)C)cc3Cl)c3c(N)ncnc32)C1 [compound 54] | – | 31 | – |
| C=CC(=O)N1CC[C@@H](n2nc(C(=O)Nc3ccc(CC(=O)N(C)C)c(Cl)c3OC)c3c(N)ncnc32)C1 [compound 55] | – | 49 | – |
| C=CC(=O)N1CC[C@@H](n2nc(C(=O)Nc3ccc(CC(=O)N(C)C)c(F)c3C)c3c(N)ncnc32)C1 [compound 56] | 2610 | 22 | IC50 [3]: 31 nM |
| C=CC(=O)N1CC[C@@H](n2nc(C(=O)Nc3ccc(OC(=O)N(C)C)c4ccccc34)c3c(N)ncnc32)C1 [compound 58] | 681 | – | – |
| C=CC(=O)N1CC[C@@H](n2nc(C(=O)Nc3ccc(CC(=O)N(C)C)c(C)c3C)c3c(N)ncnc32)C1 [compound 59] | – | 45 | – |
| C=CC(=O)N1CC[C@@H](n2nc(C(=O)Nc3ccc(CC(=O)N(C)C)cc3C=C)c3c(N)ncnc32)C1 [compound 60] | 5260 | 20 | – |
| C=CC(=O)N1CC[C@@H](n2nc(C(=O)Nc3ccc(CC(=O)N(C)C)c4ccccc34)c3c(N)ncnc32)C1 [compound 61] | 1100 | 13 | – |
| C=CC(=O)N1CC[C@@H](n2nc(C(=O)Nc3ccc(CC(=O)N(C)C)cc3Br)c3c(N)ncnc32)C1 [compound 62] | – | 59 | – |
| C=CC(=O)N1CC[C@@H](n2nc(C(=O)Nc3ccc(OC(=O)N(C)C)cc3C)c3c(N)ncnc32)C1 [compound 63] | 1670 | – | IC50 [3]: 11 nM |
| C=CC(=O)N1CC[C@@H](n2nc(C(=O)Nc3ccc(CC(=O)N(C)C)c(F)c3Cl)c3c(N)ncnc32)C1 [compound 65] | – | 20 | – |
| C=CC(=O)N1CC[C@@H](n2nc(C(=O)Nc3cc(Cl)c(CC(=O)N(C)C)cc3C)c3c(N)ncnc32)C1 [compound 67] | – | 72 | – |
| C=CC(=O)N1CCC[C@@H](n2nc(C(=O)Nc3ccc(CC(=O)N4CCCC4)cc3C)c3c(N)ncnc32)C1 [compound 71, (R)-1-(1-acryloylpiperidin-3-yl)-4-amino-N-(2-methyl-4-(2-oxo-2-(pyrrolidin-1-yl)ethyl)phenyl)-1H-pyrazolo[3,4-d]pyrimidine-3-carboxamide] | – | – | IC50 ([1]; Homo sapiens, A-431, 72 h): 2120 nM; IC50 ([3]; Homo sapiens, NCI-N87, 72 h): 26 nM |
| C=CC(=O)N1CCC[C@@H](n2nc(C(=O)Nc3ccc(NC(=O)N(C)C)cc3C)c3c(N)ncnc32)C1 [compound 74, (R)-1-(1-acryloylpiperidin-3-yl)-4-amino-N-(4-(3,3-dimethylureido)-2-methylphenyl)-1H-pyrazolo[3,4-d]pyrimidine-3-carboxamide] | – | – | IC50 ([1]; Homo sapiens, A-431, 72 h): 8080 nM; IC50 ([3]; Homo sapiens, NCI-N87, 72 h): 18 nM |
| C=CC(=O)N1C[C@H](n2nc(C(=O)Nc3ccc(CC(=O)N(C)C)cc3Cl)c3c(N)ncnc32)C[C@@H]1C [compound 78] | 5450 | – | – |
| C=CC(=O)N1C[C@H](n2nc(C(=O)Nc3ccc(CC(=O)N(C)C)c(C)c3C)c3c(N)ncnc32)C[C@@H]1C [compound 79] | 6940 | 17 | – |
| (R)-4-(1-(1-acryloylpyrimidin-3-yl)-4-amino-1H-pyrazolo[3,4-d]pyrimidine-3-carboxamido)-3-methylphenyl methyl(phenyl) carbamate [compound 68] | – | 7.7 | – |
| (R)-4-(1-(1-acryloylpyrimidin-3-yl)-4-amino-1H-pyrazolo[3,4-d]pyrimidine-3-carboxamido)-3-methylphenyl piperidine-1-carboxylate [compound 70] | – | 10 | – |
| (R)-4-(1-(1-acryloylpyrimidin-3-yl)-4-amino-1H-pyrazolo[3,4-d]pyrimidine-3-carboxamido)-3-methylphenyl pyrrolidine-1-carboxylate [compound 69] | – | 9.2 | – |

Source: US11696917B2, “Agent enhancing antitumor effect using pyrazolo[3,4-d]pyrimidine compound” (TAIHO PHARMACEUTICAL CO., LTD., priority 2017, dated 2023)
